{
  "source": "paper PMC5599507",
  "about": "(Scientific Reports, 2017)",
  "key": {"NR1/NR2A NMDAR": {"target": "T1, NR1/NR2A NMDAR (Homo sapiens, UniProt Q05586+Q12879)", "T1 construct": "cDNAs for the GRIN1 (NM_007327), GRIN2A (NM_000833.3), GRIN2B (NM_000834.3) and Kir2.1 (NM_000891.2) proteins were purchased from GeneCopoeia; expressed in transfected cells; host or cells: HEK293 cells (ATCC) transduced with BacMam baculovirus (pFastBac-CMV-GW-DEST); virus made in Sf9", "T1 sequence (Q12879 23-1464, other chains not shown)": "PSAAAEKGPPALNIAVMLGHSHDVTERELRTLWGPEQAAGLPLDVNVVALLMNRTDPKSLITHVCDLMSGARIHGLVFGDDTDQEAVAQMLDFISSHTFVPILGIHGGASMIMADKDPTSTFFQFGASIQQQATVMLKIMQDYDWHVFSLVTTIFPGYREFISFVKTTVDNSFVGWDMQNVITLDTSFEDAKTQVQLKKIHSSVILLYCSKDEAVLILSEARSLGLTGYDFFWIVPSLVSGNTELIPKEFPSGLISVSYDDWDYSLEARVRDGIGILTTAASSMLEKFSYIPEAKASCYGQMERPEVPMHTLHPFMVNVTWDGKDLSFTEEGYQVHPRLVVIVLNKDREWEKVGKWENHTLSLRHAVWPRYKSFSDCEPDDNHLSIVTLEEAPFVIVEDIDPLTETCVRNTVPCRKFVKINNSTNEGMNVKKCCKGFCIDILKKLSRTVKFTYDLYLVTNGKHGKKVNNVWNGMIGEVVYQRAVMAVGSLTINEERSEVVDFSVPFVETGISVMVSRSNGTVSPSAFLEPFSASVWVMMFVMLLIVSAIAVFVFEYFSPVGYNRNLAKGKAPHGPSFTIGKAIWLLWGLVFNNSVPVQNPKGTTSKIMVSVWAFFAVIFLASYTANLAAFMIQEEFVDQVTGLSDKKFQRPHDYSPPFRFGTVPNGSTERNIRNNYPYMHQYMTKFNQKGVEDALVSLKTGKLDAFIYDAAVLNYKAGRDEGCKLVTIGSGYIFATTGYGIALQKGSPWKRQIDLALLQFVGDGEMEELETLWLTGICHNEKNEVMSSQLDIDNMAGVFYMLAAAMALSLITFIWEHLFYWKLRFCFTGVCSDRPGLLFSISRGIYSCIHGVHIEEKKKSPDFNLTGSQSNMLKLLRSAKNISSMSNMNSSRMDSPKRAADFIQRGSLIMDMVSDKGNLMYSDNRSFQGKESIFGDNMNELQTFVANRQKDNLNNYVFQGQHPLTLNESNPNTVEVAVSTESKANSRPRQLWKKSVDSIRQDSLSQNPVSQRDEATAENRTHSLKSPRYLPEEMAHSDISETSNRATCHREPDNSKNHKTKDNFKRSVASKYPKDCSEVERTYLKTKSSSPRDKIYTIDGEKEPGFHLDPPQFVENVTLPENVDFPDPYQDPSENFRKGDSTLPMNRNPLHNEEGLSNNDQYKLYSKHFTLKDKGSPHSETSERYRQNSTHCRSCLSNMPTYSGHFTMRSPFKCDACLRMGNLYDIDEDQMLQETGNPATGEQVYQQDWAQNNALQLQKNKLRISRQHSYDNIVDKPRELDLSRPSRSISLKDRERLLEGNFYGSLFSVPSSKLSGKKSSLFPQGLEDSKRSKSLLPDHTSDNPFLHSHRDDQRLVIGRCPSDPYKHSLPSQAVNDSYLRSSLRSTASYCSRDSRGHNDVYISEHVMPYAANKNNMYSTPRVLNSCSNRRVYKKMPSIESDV", "test": "NMDAR-mediated calcium flux assay, NR1/NR2A-transduced HEK293 cells", "format": "cell-based", "conditions": "for glutamate concentration dependence of inhibitor potency: CGP070667-protected cells; for ligand-induced NMDAR-mediated calcium influx after protection with the compound and washout: cells cultured 16 h with compound, washed, stimulated with glycine/glutamate; for effect on NMDAR activity at saturating concentrations of ligand: saturating concentrations of both ligands; for potentiation of NMDAR activity at submaximal ligand concentration: submaximal (EC30) D-serine or glutamate; for EC50: MDL105,519-protected cells after washout, read-out: EC50 of activation of NMDAR-mediated calcium flux", "method": "(§2) 10^4 cells per 384-well were infected with baculovirus in suspension, seeded into a clear bottom, poly-D-lysine treated 384-well plate (Corning) and treated with the indicated concentrations of protection compound (100 µM MDL105,519 or 5 µM CGP070667). 16 h after transduction, cell medium was replaced with calcium6-dye (Molecular Devices, R8192) in incubation buffer (HBSS pH 7.5, 20 mM HEPES, 1 mM MgCl2, 1 mM probenecid) and cells were incubated at 37 °C for 2 h. […] In the beginning of each experiment baseline fluorescence (F0) was measure for 5–30 sec. For compound treatment, 10 µl of a 4× stock of compound diluted in assay buffer was added on the FDSS (speed 20 µl/s, tip height 1.8 mm) fluorescence was measured for 5 min (interval 1) before adding 10 µl of a 5× stock of ligand diluted in assay buffer and measurement of fluorescence for 5 min (interval 2). For single addition experiments, the maximal fluorescence ratio was calculated by dividing the maximal fluorescence in interval 1 by the average baseline fluorescence (Fmax/F0). For experiments requiring two additions, the integral of the fluorescence ratio was determined by calculating the area under the curve of the fluorescent ratios in interval 2. Data was analyzed as indicated and was normalized to controls located on the same plate."}, "NR1/NR2A-H44A/E226A": {"tested_on": "NR1/NR2A-H44A/E226A", "test": "NMDAR-mediated calcium flux assay, NR1/NR2A-H44A/E226A mutant in HEK293 cells", "conditions": "at the EC50 of D-serine", "method": "as §2"}, "NR1/NR2B NMDAR": {"target": "T2, NR1/NR2B NMDAR (Homo sapiens, UniProt Q05586+Q13224)", "T2 construct": "cDNAs for the GRIN1 (NM_007327), GRIN2A (NM_000833.3), GRIN2B (NM_000834.3) and Kir2.1 (NM_000891.2) proteins were purchased from GeneCopoeia; expressed in transfected cells; host or cells: HEK293 cells (ATCC) transduced with BacMam baculovirus (pFastBac-CMV-GW-DEST)", "T2 sequence (Q13224 27-1484, other chains not shown)": "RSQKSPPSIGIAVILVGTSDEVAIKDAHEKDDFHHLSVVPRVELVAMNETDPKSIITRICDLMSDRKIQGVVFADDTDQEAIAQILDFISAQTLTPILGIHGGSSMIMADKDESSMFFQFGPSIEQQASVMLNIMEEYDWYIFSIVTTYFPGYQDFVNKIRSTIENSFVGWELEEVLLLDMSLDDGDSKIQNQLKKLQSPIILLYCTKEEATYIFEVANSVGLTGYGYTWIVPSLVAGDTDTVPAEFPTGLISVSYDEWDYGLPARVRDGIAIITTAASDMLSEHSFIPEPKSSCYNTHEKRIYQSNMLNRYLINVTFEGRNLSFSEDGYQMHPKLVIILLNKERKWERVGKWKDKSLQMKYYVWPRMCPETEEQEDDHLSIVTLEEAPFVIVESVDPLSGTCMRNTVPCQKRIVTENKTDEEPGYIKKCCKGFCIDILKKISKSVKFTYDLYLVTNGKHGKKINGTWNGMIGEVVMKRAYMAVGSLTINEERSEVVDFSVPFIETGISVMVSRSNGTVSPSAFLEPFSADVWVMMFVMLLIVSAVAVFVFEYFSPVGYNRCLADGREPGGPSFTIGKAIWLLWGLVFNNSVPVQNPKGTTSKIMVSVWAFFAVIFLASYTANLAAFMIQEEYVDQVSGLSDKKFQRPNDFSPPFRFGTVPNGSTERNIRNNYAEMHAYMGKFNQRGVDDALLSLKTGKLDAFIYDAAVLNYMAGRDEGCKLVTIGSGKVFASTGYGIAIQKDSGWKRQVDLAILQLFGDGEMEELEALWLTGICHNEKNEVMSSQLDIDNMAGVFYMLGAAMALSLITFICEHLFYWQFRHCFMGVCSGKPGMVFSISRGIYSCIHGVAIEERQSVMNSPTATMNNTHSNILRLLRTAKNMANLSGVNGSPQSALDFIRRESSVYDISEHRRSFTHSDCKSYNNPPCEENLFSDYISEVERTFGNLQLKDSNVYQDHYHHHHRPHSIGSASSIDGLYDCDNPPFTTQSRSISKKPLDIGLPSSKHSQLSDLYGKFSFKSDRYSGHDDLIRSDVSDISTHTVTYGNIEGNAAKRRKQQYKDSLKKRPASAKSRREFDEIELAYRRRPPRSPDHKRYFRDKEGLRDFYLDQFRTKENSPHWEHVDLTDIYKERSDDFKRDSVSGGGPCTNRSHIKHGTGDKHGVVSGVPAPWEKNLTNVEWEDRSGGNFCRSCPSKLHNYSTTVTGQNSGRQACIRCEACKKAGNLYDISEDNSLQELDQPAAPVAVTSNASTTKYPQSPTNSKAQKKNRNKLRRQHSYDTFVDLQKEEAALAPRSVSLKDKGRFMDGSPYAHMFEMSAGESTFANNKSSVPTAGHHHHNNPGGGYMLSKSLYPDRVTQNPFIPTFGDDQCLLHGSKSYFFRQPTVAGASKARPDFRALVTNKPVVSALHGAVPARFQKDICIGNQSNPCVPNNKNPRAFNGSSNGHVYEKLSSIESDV", "test": "NMDAR-mediated calcium flux assay, NR1/NR2B-transduced HEK293 cells", "format": "cell-based", "method": "16 h after transduction, cell medium was replaced with calcium6-dye (Molecular Devices, R8192) in incubation buffer (HBSS pH 7.5, 20 mM HEPES, 1 mM MgCl2, 1 mM probenecid) and cells were incubated at 37 °C for 2 h. Before measurement, the dye-solution was replaced with 30 ul assay buffer (HBSS pH 7.5, 20 mM HEPES, 1.8 mM CaCl2). Cells were allowed to rest for 10 min at room temperature before measuring calcium flux on a FDSS7000 plate reader (Hamamatsu) with the following settings: 1 sec measurement interval, 200 ms exposure time, 2 × 2 binning, Ex480 nm:Em540 nm, sensitivity 1–3. In the beginning of each experiment baseline fluorescence (F0) was measure for 5–30 sec. For compound treatment, 10 µl of a 4× stock of compound diluted in assay buffer was added on the FDSS (speed 20 µl/s, tip height 1.8 mm) fluorescence was measured for 5 min (interval 1) before adding 10 µl of a 5× stock of ligand diluted in assay buffer and measurement of fluorescence for 5 min (interval 2). For single addition experiments, the maximal fluorescence ratio was calculated by dividing the maximal fluorescence in interval 1 by the average baseline fluorescence (Fmax/F0). For experiments requiring two additions, the integral of the fluorescence ratio was determined by calculating the area under the curve of the fluorescent ratios in interval 2. Data was analyzed as indicated and was normalized to controls located on the same plate."}, "[1]": {"tested_on": "NR1/2A-transduced HEK293 cells", "test": "Cell viability (CellTiterGlo) of NR1/2A-transduced HEK293 cells, protection from excitotoxicity", "format": "cell-based, human", "protocol": "(§1) Cell viability was assessed Cell Titer Glo (Promega) and measured on an Envision plate reader (PerkinElmer)."}, "NR1/NR2A-V783F": {"target": "T3, NR1/NR2A-V783F (Homo sapiens, UniProt Q05586+Q12879, V783F)", "T3 construct": "cDNAs for the GRIN1 (NM_007327), GRIN2A (NM_000833.3), GRIN2B (NM_000834.3) and Kir2.1 (NM_000891.2) proteins were purchased from GeneCopoeia; expressed in transfected cells; host or cells: HEK293 cells transduced with BacMam baculovirus", "T3 sequence (Q12879 23-1464 V783F, other chains not shown)": "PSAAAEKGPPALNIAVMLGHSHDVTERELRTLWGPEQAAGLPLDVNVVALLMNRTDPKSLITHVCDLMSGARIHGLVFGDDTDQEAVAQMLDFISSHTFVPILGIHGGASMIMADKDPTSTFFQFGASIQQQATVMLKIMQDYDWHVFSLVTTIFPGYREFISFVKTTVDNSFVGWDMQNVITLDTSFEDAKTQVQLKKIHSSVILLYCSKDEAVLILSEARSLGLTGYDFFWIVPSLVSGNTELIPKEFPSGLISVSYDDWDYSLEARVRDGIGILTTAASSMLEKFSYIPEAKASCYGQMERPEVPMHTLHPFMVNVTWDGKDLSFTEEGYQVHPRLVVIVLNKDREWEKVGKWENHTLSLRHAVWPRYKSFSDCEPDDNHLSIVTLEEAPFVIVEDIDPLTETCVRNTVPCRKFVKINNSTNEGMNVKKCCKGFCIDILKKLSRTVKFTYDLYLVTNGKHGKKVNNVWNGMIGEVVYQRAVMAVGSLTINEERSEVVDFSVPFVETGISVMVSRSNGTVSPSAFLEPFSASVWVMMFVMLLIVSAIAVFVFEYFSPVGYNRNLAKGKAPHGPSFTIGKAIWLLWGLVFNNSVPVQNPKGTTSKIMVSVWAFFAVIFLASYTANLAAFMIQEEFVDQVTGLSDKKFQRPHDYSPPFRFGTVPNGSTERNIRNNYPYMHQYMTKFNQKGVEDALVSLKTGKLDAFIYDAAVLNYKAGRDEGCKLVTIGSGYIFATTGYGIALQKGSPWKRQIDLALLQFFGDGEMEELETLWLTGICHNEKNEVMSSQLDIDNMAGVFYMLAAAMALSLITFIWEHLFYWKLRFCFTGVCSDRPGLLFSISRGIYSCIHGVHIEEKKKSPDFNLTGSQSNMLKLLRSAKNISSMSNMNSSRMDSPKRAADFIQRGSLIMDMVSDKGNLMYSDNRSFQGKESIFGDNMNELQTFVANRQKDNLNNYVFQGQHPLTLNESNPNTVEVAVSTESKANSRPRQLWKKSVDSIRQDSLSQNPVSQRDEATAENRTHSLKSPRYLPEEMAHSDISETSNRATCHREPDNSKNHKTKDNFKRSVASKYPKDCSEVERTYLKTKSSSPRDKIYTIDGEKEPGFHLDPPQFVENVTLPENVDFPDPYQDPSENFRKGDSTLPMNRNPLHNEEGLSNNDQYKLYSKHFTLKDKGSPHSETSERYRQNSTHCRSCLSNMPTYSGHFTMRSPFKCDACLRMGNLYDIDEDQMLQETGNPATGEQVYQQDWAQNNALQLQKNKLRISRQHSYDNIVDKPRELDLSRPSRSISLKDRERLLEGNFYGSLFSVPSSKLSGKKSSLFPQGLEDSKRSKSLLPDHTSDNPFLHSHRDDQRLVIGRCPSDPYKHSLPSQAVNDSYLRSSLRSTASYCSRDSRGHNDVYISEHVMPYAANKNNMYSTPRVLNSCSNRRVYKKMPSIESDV", "test": "NMDAR-mediated calcium flux assay, NR1/NR2A-V783F mutant in HEK293 cells", "format": "cell-based", "conditions": "MDL105,519-protected cells", "method": "16 h after transduction, cell medium was replaced with calcium6-dye (Molecular Devices, R8192) in incubation buffer (HBSS pH 7.5, 20 mM HEPES, 1 mM MgCl2, 1 mM probenecid) and cells were incubated at 37 °C for 2 h. Before measurement, the dye-solution was replaced with 30 ul assay buffer (HBSS pH 7.5, 20 mM HEPES, 1.8 mM CaCl2). Cells were allowed to rest for 10 min at room temperature before measuring calcium flux on a FDSS7000 plate reader (Hamamatsu) with the following settings: 1 sec measurement interval, 200 ms exposure time, 2 × 2 binning, Ex480 nm:Em540 nm, sensitivity 1–3. In the beginning of each experiment baseline fluorescence (F0) was measure for 5–30 sec. For compound treatment, 10 µl of a 4× stock of compound diluted in assay buffer was added on the FDSS (speed 20 µl/s, tip height 1.8 mm) fluorescence was measured for 5 min (interval 1) before adding 10 µl of a 5× stock of ligand diluted in assay buffer and measurement of fluorescence for 5 min (interval 2). For single addition experiments, the maximal fluorescence ratio was calculated by dividing the maximal fluorescence in interval 1 by the average baseline fluorescence (Fmax/F0). For experiments requiring two additions, the integral of the fluorescence ratio was determined by calculating the area under the curve of the fluorescent ratios in interval 2. […]"}, "HEK293 cells": {"tested_on": "HEK293 cells", "test": "Cell viability (CellTiterGlo) of HEK293 cells, toxicity of the compound itself", "format": "cell-based, human", "conditions": "16 h treatment", "protocol": "as §1"}, "[2]": {"conditions": "HEK293 cells after protection with MDL105,519, stimulation with EC80 of both ligands, mean, n > 3, n.d. = not detectable, read-out: IC50 NR2B"}, "[3]": {"conditions": "16 h after transduction with concurrent treatment"}, "[4]": {"conditions": "HEK293 cells after protection with MDL105,519, stimulation with EC80 of both ligands, mean, n > 3, n.d. = not detectable, read-out: IC50 NR2A"}},
  "note": "Where two headings read alike, the source gives them in different places.",
  "data": [
    {"compound": "N[C@@H](CO)C(=O)O", "note": "[L-serine]", "values": [
      {"measurement": "right shift in potency as compared to D-serine", "setting": "NR1/NR2A NMDAR; MDL105,519-protected cells, saturating glutamate", "value": "~ 200 fold"}
    ]},
    {"compound": "O=C(O)CN(CCN(CC(=O)O)CC(=O)O)CC(=O)O", "note": "[EDTA]", "values": [
      {"measurement": "sensitivity of the double mutant to activation", "setting": "NR1/NR2A-H44A/E226A; compared to wildtype NR2A", "value": "less sensitive"}
    ]},
    {"compound": "C[C@]12N[C@H](Cc3ccccc31)c1ccccc12", "note": "[MK801]", "values": [
      {"measurement": "glutamate concentration dependence of inhibitor potency", "setting": "NR1/NR2A NMDAR", "value": "only minor effects"},
      {"measurement": "change of signal on NMDAR block in the absence of ligand (basal activity)", "setting": "NR1/NR2A NMDAR; after washout of MDL105,519, no ligand", "value": "only a weak decrease of signal"},
      {"measurement": "ligand-induced NMDAR-mediated calcium influx after protection with the compound and washout", "setting": "NR1/NR2A NMDAR", "value": "did not observe significant ligand-induced NMDAR-mediated calcium influx"},
      {"measurement": "IC50", "setting": "NR1/NR2B NMDAR; [2]", "value": 0.15, "unit": "µM"},
      {"measurement": "protection from NMDAR-mediated excitotoxicity (cell viability)", "setting": "[1]; [3]", "value": "could be rescued"}
    ]},
    {"compound": "CCN(Cc1cc(=O)n2c3c(sc2n1)CCC3)c1ccc(F)cc1", "note": "[GNE-8324]", "values": [
      {"measurement": "effect on NMDAR activity at saturating concentrations of ligand", "setting": "NR1/NR2A NMDAR", "value": "enhanced NMDAR activity"},
      {"measurement": "potentiation of NMDAR activity at submaximal ligand concentration", "setting": "NR1/NR2A NMDAR", "value": "concentration-dependent potentiation"},
      {"measurement": "effect on NR1/2B-mediated calcium flux", "setting": "NR1/NR2B NMDAR", "value": "no effect"},
      {"measurement": "sensitivity of NR1/2A-V783F to the compound", "setting": "NR1/NR2A-V783F", "value": "complete loss of sensitivity"}
    ]},
    {"compound": "N[C@H](CO)C(=O)O", "note": "[D-serine]", "values": [
      {"measurement": "EC50", "setting": "NR1/NR2A NMDAR", "value": "~9", "unit": "µM"}
    ]},
    {"compound": "NCC(=O)O", "note": "[glycine]", "values": [
      {"measurement": "sensitivity of NMDAR-mediated calcium flux to ligand", "setting": "NR1/NR2A NMDAR; CGP070667-protected cells after washout", "value": "insensitivity"},
      {"measurement": "EC50", "setting": "NR1/NR2A NMDAR", "value": "~12", "unit": "µM"}
    ]},
    {"compound": "[Zn+2]", "note": "[zinc]", "values": [
      {"measurement": "IC50", "setting": "NR1/NR2A NMDAR; MDL105,519-protected cells, at the EC50 of D-serine, read-out: IC50 for zinc, wildtype receptor", "value": "~0.1", "unit": "µM"},
      {"measurement": "IC50", "setting": "NR1/NR2A-H44A/E226A; read-out: IC50 for zinc, NR2A-H44A/E226A double mutant, MDL105,519-protected cells", "value": "> 10", "unit": "µM"}
    ]},
    {"compound": "pregnenolone sulfate [PS]", "values": [
      {"measurement": "effect on NMDAR activity at saturating concentrations of ligand", "setting": "NR1/NR2A NMDAR", "value": "supramaximal activation"},
      {"measurement": "potentiation of NMDAR activity at submaximal ligand concentration", "setting": "NR1/NR2A NMDAR", "value": "enhanced NMDAR activity"},
      {"measurement": "effect on NMDAR activity at saturating concentrations of ligand", "setting": "NR1/NR2B NMDAR; saturating concentrations of both ligands", "value": "supramaximal activation"},
      {"measurement": "potentiation of NMDAR activity at submaximal ligand concentration", "setting": "NR1/NR2B NMDAR; submaximal (EC30) D-serine or glutamate", "value": "enhanced NMDAR activity"}
    ]},
    {"compound": "CNC1(c2ccccc2Cl)CCCCC1=O", "note": "(stereo not shown) [Ketamine]", "values": [
      {"measurement": "IC50", "setting": "NR1/NR2A NMDAR", "value": 23, "unit": "µM"},
      {"measurement": "ligand-induced NMDAR-mediated calcium influx after protection with the compound and washout", "setting": "NR1/NR2A NMDAR", "value": "did not observe significant ligand-induced NMDAR-mediated calcium influx"},
      {"measurement": "IC50", "setting": "NR1/NR2B NMDAR", "value": 12.1, "unit": "µM"},
      {"measurement": "protection from NMDAR-mediated excitotoxicity (cell viability)", "setting": "[1]; [3]", "value": "could be rescued"},
      {"measurement": "toxic effect on HEK293 cells", "setting": "HEK293 cells", "value": "dose-dependent toxic effect"}
    ]},
    {"compound": "O=c1[nH]c2cc(Cl)ccc2c(O)c1-c1cccc(Oc2ccccc2)c1", "note": "[L701,324]", "values": [
      {"measurement": "IC50", "setting": "NR1/NR2A NMDAR; [4]", "value": 1.45, "unit": "µM"},
      {"measurement": "IC50", "setting": "NR1/NR2B NMDAR; [2]", "value": 1.91, "unit": "µM"}
    ]},
    {"compound": "C[C@H](NC(c1cccc2[nH]c(=O)c(=O)[nH]c12)P(=O)(O)O)c1ccc(Br)cc1", "note": "(stereo partly shown) [NVP-AAM077]", "values": [
      {"measurement": "IC50", "setting": "NR1/NR2A NMDAR; [4]", "value": 2.46, "unit": "µM"},
      {"measurement": "IC50", "setting": "NR1/NR2B NMDAR; [2]", "value": 11.9, "unit": "µM"}
    ]},
    {"compound": "C[C@@H](CN1CCC(Cc2ccccc2)CC1)[C@@H](O)c1ccc(O)cc1", "note": "[RO25-6981]", "values": [
      {"measurement": "IC50", "setting": "NR1/NR2B NMDAR; [2]", "value": 0.1, "unit": "µM"}
    ]},
    {"compound": "O=C(O)C(=Cc1c(C(=O)O)[nH]c2cc(Cl)cc(Cl)c12)c1ccccc1", "note": "[MDL105,519]", "values": [
      {"measurement": "glutamate concentration dependence of inhibitor potency", "setting": "NR1/NR2A NMDAR", "value": "only minor effects"},
      {"measurement": "IC50", "setting": "NR1/NR2A NMDAR; [4]", "value": 0.62, "unit": "µM"},
      {"measurement": "shift of inhibitor dose response curve, EC100 vs EC20 of D-serine", "setting": "NR1/NR2A NMDAR; MDL105,519-protected cells", "value": "right shift"},
      {"measurement": "ligand-induced NMDAR-mediated calcium influx after protection with the compound and washout", "setting": "NR1/NR2A NMDAR", "value": "enabled the largest dynamic range of NMDAR-activity"},
      {"measurement": "IC50", "setting": "NR1/NR2B NMDAR; [2]", "value": 1.65, "unit": "µM"},
      {"measurement": "protection from NMDAR-mediated excitotoxicity (cell viability)", "setting": "[1]; [3]", "value": "dose-dependent rescue of cell viability"},
      {"measurement": "cell viability compared to non-transduced cells", "setting": "[1]; overnight (16 h) treatment of NR1/2A-transduced cells, screen of 120 compounds", "value": "> 70", "unit": "%"}
    ]},
    {"compound": "[Cl-].[Cl-].[Mg+2]", "note": "[MgCl2, magnesium chloride]", "values": [
      {"measurement": "sensitivity of NR1/NR2A to inhibition with increasing Kir2.1 baculovirus titer", "setting": "NR1/NR2A NMDAR; co-transduction with Kir2.1 (KCNJ2), MDL105,519-protected cells", "value": "increased sensitivity"},
      {"measurement": "concentration giving partial rescue of cell viability", "setting": "[1]; [3]", "value": "> 10", "unit": "mM"},
      {"measurement": "protection from NMDAR-mediated excitotoxicity (cell viability)", "setting": "[1]; [3]", "value": "partial rescue"}
    ]}
  ]
}
